These are literature values, as cited in paper PMC12839115, “2-Arylbenzofurans as Selective Cholinesterase Inhibitors: Design, Synthesis, and Evaluation as Alzheimer’s Disease Agents” (Biomolecules, 2026).

This data set addresses T1, BChE (EC 3.1.1.8) from equine serum (Equus caballus, UniProt P81908).
T1 construct: BChE (EC 3.1.1.8) from equine serum were employed; from tissue; host or cells: equine serum

Each structure is given as a SMILES string.

T1 sequence (P81908 whole entry): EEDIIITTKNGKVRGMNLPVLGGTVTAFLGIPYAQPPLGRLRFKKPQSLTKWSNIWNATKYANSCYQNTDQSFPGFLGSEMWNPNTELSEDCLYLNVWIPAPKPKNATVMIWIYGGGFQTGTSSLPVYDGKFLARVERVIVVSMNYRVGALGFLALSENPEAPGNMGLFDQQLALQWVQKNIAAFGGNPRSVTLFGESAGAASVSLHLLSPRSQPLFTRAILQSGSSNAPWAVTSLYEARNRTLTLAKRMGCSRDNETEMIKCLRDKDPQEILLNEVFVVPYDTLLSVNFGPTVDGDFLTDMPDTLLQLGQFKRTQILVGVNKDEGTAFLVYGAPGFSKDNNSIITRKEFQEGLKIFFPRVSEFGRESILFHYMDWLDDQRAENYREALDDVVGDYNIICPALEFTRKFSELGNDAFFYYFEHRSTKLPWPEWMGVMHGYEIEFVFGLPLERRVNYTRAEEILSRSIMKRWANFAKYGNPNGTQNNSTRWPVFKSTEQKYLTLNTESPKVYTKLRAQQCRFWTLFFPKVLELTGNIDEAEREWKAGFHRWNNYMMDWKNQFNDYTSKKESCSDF

Turning to `Oc1cccc(-c2cc3cccc(Cl)c3o2)c1` [C00004], the IC50 is 13.4 ± 2.57 µM.
Turning to `Oc1cccc(-c2cc3cccc(Br)c3o2)c1` [C00010], the IC50 is 7.96 ± 0.28 µM.
